Tested on: Huh7.5 cells
Assay: Supernatant infectivity titer, focus forming unit (FFU) method on Huh7.5 cells
Format: cell-based, human
Method: To determine the efficiency of the developed system, HCV RNA titers are determined in IU/ml (international units/ml) with Taq-Man Real-Time-PCR and infectious titers are determined with a focus-forming units (FFU) method: in this method, infectivity titers are determined by infection of cell culture replicates with serial dilutions of virus containing supernatants and, following immuno-stainings for HCV antigens, counting of HCV-antigen positive cell foci. Alternatively the infectious titers are determined as 50% tissue culture infectious dose.
Viral spread was monitored by HCV Core and NS5A immunostainings with mouse anti-HCV core protein monoclonal antibody (B2) (Anogen, Yes Biotech Laboratories) or anti-NS5A, 9E10, respectively, as described in the following section. For reporter viruses tagged with fluorescent reporter gene, viral spread was also monitored by direct visualization of the reporter gene by fluorescence microscopy. For reporter viruses tagged with hRLuc reporter gene, viral spread was also monitored by luminescence-based assay as described below. Supernatant infectivity titers were determined as 50% tissue culture infectious dose (TCID50)/mL or as focus forming units (FFU)/mL, as described in the following section. Supernatant HCV RNA titers were measured by a 5′ UTR based Real Time RT-PCR as described below.
Viral infectivity titers were determined by the tissue culture infectious dose 50 (TCID50) or focus forming unit method. 6×10^3/well naive Huh7.5 cells were plated out in a poly-D-lysine coated 96-well plate (Nunc) the day before infection. Cells were then incubated with 10-fold dilutions of cell culture supernatants. For TCID50 determinations, 6 replicates per dilution were incubated for 2-3 days. For FFU determinations, wells were incubated for 48 rs. After incubation, cells were permeabilized for 5′ with cold methanol. After washing 1× with PBS and 1× with PBS/Tween-20, blocking was carried out for 20′ with sterile filtered 1% BSA/0.2% skim milk in PBS followed by a 5′ blocking of endogenous peroxidase activity using 3% H2O2. Cells were washed as above and incubated with a 1:200 dilution of 1° Ab α-NS5A (9E10) in PBS/0.1% tween-20 over night at 4° C. After washing, a 1:300 dilution of 2° Ab HRP-goat anti-mouse IgG (H+L) (Amersham Biosciences) in PBS/0.1% tween-20 was added and incubated for 30′ at room temperature. Staining was developed using DAB substrate kit (DAKO) for 30′ after washing. In TCID50 determinations, wells were scored positive if one or more cells were infected, and the TCID50 was calculated according to the Reed and Muench method. TCID50 values are derived from single or multiple determinations as indicated. FFU determinations are based on counts of wells with 5-100 FFU and three independent virus dilutions with one replicate each. Counts were obtained by counting FFU by eye or by using automated counting on an ImmunoSpot Series 5 UV Analyzer (CTL Europe GmbH) with customized software kindly provided by CTL. From FFU counts in experimental wells, the mean of spot counts of at least 6 negative control wells was subtracted (˜usually 3 to 15 spots).

[1] = day 5 post transfection, Huh7.5
[2] = day 8 post transfection, Huh7.5

Row | Substance | Infectivity titer of transfection supernatant Log10 (FFU/mL) [1] | Infectivity titer of transfection supernatant Log10 (FFU/mL) [2] | Infectivity titer of transfection supernatant Log10 (FFU/mL) (day 5 post transfection, * another, independent transfection experiment) | Infectivity titer of transfection supernatant Log10 (FFU/mL) (day 7 post transfection, * another, independent transfection experiment)
1 | H77^5′UTR/J8^C-NS2/JFH1: 2b Core-NS2 recombinant with heterotypic 1a (H77) 5′UTR | 3.41 Log10 (FFU/mL) | 2.58 Log10 (FFU/mL) | – | –
2 | J8^5′UTR-NS2/JFH1: 2b Core-NS2 recombinant with homotypic 2b (J8) 5′UTR | 3.94 Log10 (FFU/mL) | 3.75 Log10 (FFU/mL) | – | –
3 | H77^5′UTR/J4^C-NS2/JFH1T2997C, A4828T: 1b Core-NS2 recombinant with heterotypic 1a (H77) 5′UTR | 3.32 Log10 (FFU/mL) | 2.49 Log10 (FFU/mL) | – | –
4 | S52^5′UTR/J8^C-NS2/JFH1: 2b Core-NS2 recombinant with heterotypic 3a (S52) 5′UTR | 3.08 Log10 (FFU/mL) | 2.10 Log10 (FFU/mL) | – | –
5 | HK6a^5′UTR-NS2/JFH1T1391C, A1592C: 6a Core-NS2 recombinant with homotypic 6a (HK6a) 5′UTR | – | – | 4.57 Log10 (FFU/mL) | 4.39 Log10 (FFU/mL)
6 | H77^5′UTR/S52^C-NS2/JFH1T2719G, A4551C: 3a Core-NS2 recombinant with heterotypic 1a (H77) 5′UTR | 4.07 Log10 (FFU/mL) | 4.22 Log10 (FFU/mL) | – | –
7 | S52^5′UTR/HK6a^C-NS2/JFH1T1388C, A1589C: 6a Core-NS2 recombinant with heterotypic 3a (S52) 5′UTR | 3.29 Log10 (FFU/mL) | 3.15 Log10 (FFU/mL) | – | –
8 | H77^5′UTR/HK6a^C-NS2/JFH1T1390C, A1591C: 6a Core-NS2 recombinant with heterotypic 1a (H77) 5′UTR | 3.60 Log10 (FFU/mL) | 3.23 Log10 (FFU/mL) | – | –
9 | S52^5′UTR-NS2/JFH1T2717G, A4549C: 3a Core-NS2 recombinant with homotypic 3a (S52) 5′UTR | 4.57 Log10 (FFU/mL) | 4.53 Log10 (FFU/mL) | – | –
10 | J4^5′UTR-NS2/JFH1T2997C, A4828T: 1b Core-NS2 recombinant with homotypic 1b (J4) 5′UTR | 2.47 Log10 (FFU/mL) | 2.07 Log10 (FFU/mL) | – | –
11 | S52^5′UTR/J4^C-NS2/JFH1T2995C, A4826T: 1b Core-NS2 recombinant with heterotypic 3a (S52) 5′UTR | 2.03 Log10 (FFU/mL) | 1.67 Log10 (FFU/mL) | – | –

From patent US8772022B2, “Hepatitis C virus expressing reporter tagged NS5A protein” (Hvidovre Hospital, priority 2008, dated 2014)
